Assay results published in ChEMBL document CHEMBL4507259 (2021).

How the values were obtained:
[1] = biological target: Serine/threonine-protein kinase Nek9 (Homo sapiens) (UniProt Q8TD19); conditions: Compound concentration 1000.0 nM
[2] = system: Tyrosine-protein kinase ABL1 (Homo sapiens), P00519 [E255K]; conditions: Compound concentration 1000.0 nM
[3] = biological target: Proto-oncogene tyrosine-protein kinase ROS (Homo sapiens) (UniProt P08922); conditions: Compound concentration 1000.0 nM
[4] = biological target: Tyrosine-protein kinase HCK (Homo sapiens) (UniProt P08631); conditions: Compound concentration 1000.0 nM
[5] = biological target: T1, Muscarinic acetylcholine receptor M5 (Homo sapiens) (UniProt P08912); conditions: Compound concentration 10.0 uM
T1 sequence (whole entry): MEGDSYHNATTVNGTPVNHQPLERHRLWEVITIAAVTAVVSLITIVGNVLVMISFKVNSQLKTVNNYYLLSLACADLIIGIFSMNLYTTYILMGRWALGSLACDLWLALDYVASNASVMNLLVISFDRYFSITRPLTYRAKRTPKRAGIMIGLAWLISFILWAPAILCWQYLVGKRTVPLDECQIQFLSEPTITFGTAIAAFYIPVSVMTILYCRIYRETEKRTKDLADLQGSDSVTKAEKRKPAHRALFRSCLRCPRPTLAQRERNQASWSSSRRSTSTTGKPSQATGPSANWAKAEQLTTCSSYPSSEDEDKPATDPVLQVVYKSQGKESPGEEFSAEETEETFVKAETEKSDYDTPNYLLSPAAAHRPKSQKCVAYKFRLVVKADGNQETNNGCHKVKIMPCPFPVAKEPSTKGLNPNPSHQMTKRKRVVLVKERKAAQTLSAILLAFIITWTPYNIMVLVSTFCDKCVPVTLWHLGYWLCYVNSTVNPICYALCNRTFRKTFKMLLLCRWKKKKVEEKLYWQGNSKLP

[6] = biological target: Serine/threonine-protein kinase 38-like (Homo sapiens) (UniProt Q9Y2H1); conditions: Compound concentration 1000.0 nM
[7] = biological target: Muscle, skeletal receptor tyrosine-protein kinase (Homo sapiens) (UniProt O15146); conditions: Compound concentration 1000.0 nM
[8] = biological target: Cyclin-dependent kinase 4 (Homo sapiens) (UniProt P11802); conditions: Compound concentration 1000.0 nM
[9] = biological target: Cyclin-dependent kinase 17 (Homo sapiens) (UniProt Q00537); conditions: Compound concentration 1000.0 nM
[10] = biological target: Serine/threonine-protein kinase Chk1 (Homo sapiens) (UniProt O14757); conditions: Compound concentration 1000.0 nM
[11] = biological target: Serine/threonine-protein kinase 35 (Homo sapiens) (UniProt Q8TDR2); conditions: Compound concentration 1000.0 nM
Sequence of Serine/threonine-protein kinase 35 (Homo sapiens) (Q8TDR2 whole entry): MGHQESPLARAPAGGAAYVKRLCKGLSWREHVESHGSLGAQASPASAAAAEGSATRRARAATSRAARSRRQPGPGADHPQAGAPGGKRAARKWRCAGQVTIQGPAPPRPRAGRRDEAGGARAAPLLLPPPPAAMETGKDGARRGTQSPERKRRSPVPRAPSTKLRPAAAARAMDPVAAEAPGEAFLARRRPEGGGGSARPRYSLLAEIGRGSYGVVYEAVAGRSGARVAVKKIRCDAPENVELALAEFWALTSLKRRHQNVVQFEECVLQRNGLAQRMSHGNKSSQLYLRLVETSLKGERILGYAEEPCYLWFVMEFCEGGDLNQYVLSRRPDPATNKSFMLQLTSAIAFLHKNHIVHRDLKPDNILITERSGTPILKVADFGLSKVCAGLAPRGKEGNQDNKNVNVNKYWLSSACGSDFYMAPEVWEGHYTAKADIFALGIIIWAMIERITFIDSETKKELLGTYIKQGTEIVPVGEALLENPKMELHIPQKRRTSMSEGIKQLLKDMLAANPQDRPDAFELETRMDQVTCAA

[12] = biological target: Mitogen-activated protein kinase kinase kinase kinase 3 (Homo sapiens) (UniProt Q8IVH8); conditions: Compound concentration 1000.0 nM
[13] = biological target: Motilin receptor (Homo sapiens) (UniProt O43193); assay: motilin (h) CEREP ligand profiling; conditions: filed as agonist, Compound concentration 10.0 uM
Sequence of Motilin receptor (Homo sapiens) (O43193 whole entry): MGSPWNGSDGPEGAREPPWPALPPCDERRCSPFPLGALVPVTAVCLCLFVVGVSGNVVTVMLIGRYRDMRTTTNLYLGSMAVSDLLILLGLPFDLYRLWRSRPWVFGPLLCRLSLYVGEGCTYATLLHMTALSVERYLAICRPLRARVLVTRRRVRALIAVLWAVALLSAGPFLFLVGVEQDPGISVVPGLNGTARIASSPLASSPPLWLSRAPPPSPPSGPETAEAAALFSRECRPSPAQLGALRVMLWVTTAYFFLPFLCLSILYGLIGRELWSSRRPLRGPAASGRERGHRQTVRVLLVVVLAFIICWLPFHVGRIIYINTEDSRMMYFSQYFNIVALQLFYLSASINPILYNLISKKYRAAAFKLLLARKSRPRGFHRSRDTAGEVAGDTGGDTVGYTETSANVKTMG

[14] = biological target: Mitogen-activated protein kinase kinase kinase 9 (Homo sapiens) (UniProt P80192); conditions: Compound concentration 1000.0 nM
[15] = system: Tyrosine-protein kinase ABL1 (Homo sapiens), P00519 [F317L]; conditions: Compound concentration 1000.0 nM
[16] = biological target: Phosphatidylinositol 4-kinase beta (Homo sapiens) (UniProt Q9UBF8); conditions: Compound concentration 1000.0 nM
[17] = biological target: Calcium/calmodulin-dependent protein kinase type 1G (Homo sapiens) (UniProt Q96NX5); conditions: Compound concentration 1000.0 nM
[18] = biological target: LIM domain kinase 1 (Homo sapiens) (UniProt P53667); conditions: Compound concentration 1000.0 nM
[19] = biological target: Serine/threonine-protein kinase DCLK1 (Homo sapiens) (UniProt O15075); conditions: Compound concentration 1000.0 nM
Sequence of Serine/threonine-protein kinase DCLK1 (Homo sapiens) (O15075 whole entry): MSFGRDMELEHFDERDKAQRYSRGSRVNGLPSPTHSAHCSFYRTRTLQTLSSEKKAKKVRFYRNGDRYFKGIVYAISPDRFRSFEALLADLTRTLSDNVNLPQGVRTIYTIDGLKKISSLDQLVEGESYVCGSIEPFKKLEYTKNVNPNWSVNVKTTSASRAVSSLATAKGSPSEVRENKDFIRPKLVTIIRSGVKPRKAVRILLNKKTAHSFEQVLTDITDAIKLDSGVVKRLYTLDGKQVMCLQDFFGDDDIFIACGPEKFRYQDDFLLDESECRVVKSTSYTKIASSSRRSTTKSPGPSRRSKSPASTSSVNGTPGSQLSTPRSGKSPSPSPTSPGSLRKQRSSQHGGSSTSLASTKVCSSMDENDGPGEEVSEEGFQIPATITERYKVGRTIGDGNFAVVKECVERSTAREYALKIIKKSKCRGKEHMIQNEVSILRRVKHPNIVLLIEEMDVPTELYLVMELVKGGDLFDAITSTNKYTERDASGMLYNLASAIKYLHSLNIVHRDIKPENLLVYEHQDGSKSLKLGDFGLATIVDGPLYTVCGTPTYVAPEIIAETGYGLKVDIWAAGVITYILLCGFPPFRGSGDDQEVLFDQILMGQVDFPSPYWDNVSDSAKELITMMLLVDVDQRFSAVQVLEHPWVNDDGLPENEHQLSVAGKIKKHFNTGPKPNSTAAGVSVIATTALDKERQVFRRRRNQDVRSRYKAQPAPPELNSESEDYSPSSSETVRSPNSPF

[20] = biological target: Serine/threonine-protein kinase RIO1 (Homo sapiens) (UniProt Q9BRS2); conditions: Compound concentration 1000.0 nM
[21] = biological target: Peroxisome proliferator-activated receptor gamma (Homo sapiens) (UniProt P37231); assay: PPARgamma (h) CEREP ligand profiling; conditions: filed as agonist, Compound concentration 10.0 uM
[22] = biological target: Calcium/calmodulin-dependent protein kinase type 1B (Homo sapiens) (UniProt Q6P2M8); conditions: Compound concentration 1000.0 nM
[23] = biological target: Serine/threonine-protein kinase ULK2 (Homo sapiens) (UniProt Q8IYT8); conditions: Compound concentration 1000.0 nM
[24] = biological target: Tyrosine-protein kinase SYK (Homo sapiens) (UniProt P43405); conditions: Compound concentration 1000.0 nM
[25] = biological target: Mitogen-activated protein kinase kinase kinase 19 (Homo sapiens) (UniProt Q56UN5); conditions: Compound concentration 1000.0 nM
[26] = system: Epidermal growth factor receptor (Homo sapiens), P00533 [L858R,T790M]; conditions: Compound concentration 1000.0 nM
[27] = biological target: D(1B) dopamine receptor (Homo sapiens) (UniProt P21918); conditions: Compound concentration 10.0 uM
[28] = biological target: Mitogen-activated protein kinase kinase kinase kinase 1 (Homo sapiens) (UniProt Q92918); conditions: Compound concentration 1000.0 nM
[29] = biological target: LIM domain kinase 2 (Homo sapiens) (UniProt P53671); conditions: Compound concentration 1000.0 nM
[30] = biological target: Serine/threonine-protein kinase haspin (Homo sapiens) (UniProt Q8TF76); conditions: Compound concentration 1000.0 nM
[31] = biological target: Non-receptor tyrosine-protein kinase TYK2 (Homo sapiens) (UniProt P29597); conditions: Compound concentration 1000.0 nM
Sequence of Non-receptor tyrosine-protein kinase TYK2 (Homo sapiens) (P29597 whole entry): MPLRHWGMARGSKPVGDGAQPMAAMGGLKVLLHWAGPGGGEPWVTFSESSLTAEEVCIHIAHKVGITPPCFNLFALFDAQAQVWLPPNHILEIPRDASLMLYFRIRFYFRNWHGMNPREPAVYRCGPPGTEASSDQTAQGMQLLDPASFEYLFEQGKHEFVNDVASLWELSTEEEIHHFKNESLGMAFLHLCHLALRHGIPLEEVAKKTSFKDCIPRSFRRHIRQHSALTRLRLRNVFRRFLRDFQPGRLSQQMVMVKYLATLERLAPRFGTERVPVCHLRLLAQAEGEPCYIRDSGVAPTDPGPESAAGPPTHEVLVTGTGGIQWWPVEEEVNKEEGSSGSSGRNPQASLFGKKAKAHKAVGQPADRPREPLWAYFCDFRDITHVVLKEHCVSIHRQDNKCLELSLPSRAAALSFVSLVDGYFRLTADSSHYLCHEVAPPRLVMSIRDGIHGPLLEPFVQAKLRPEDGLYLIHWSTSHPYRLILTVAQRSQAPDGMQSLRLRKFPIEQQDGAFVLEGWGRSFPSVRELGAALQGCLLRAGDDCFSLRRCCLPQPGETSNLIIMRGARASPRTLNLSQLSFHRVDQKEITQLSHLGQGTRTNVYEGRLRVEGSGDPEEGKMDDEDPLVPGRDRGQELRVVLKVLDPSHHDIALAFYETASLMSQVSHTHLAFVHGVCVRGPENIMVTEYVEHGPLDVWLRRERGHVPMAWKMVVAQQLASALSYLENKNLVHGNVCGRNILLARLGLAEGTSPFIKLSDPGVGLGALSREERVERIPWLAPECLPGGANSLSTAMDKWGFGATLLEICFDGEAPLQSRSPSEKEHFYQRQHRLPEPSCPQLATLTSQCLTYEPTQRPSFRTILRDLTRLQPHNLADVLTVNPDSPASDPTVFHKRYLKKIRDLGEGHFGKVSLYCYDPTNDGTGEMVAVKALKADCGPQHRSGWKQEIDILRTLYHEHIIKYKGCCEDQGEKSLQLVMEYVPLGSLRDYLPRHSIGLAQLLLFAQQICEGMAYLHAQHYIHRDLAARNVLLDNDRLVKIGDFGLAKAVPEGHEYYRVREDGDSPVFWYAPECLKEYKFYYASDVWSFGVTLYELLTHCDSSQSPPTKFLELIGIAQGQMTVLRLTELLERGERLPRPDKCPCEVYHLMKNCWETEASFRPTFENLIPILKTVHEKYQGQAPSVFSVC

[32] = system: Tyrosine-protein kinase ABL1 (Homo sapiens), P00519 [H396P]; conditions: Compound concentration 1000.0 nM
[33] = biological target: Tyrosine-protein kinase receptor Tie-1 (Homo sapiens) (UniProt P35590); conditions: Compound concentration 1000.0 nM
[34] = biological target: Wee1-like protein kinase (Homo sapiens) (UniProt P30291); conditions: Compound concentration 1000.0 nM
[35] = biological target: Serine/threonine-protein kinase TNNI3K (Homo sapiens) (UniProt Q59H18); conditions: Compound concentration 1000.0 nM
[36] = biological target: Mitogen-activated protein kinase 6 (Homo sapiens) (UniProt Q16659); conditions: Compound concentration 1000.0 nM
Sequence of Mitogen-activated protein kinase 6 (Homo sapiens) (Q16659 whole entry): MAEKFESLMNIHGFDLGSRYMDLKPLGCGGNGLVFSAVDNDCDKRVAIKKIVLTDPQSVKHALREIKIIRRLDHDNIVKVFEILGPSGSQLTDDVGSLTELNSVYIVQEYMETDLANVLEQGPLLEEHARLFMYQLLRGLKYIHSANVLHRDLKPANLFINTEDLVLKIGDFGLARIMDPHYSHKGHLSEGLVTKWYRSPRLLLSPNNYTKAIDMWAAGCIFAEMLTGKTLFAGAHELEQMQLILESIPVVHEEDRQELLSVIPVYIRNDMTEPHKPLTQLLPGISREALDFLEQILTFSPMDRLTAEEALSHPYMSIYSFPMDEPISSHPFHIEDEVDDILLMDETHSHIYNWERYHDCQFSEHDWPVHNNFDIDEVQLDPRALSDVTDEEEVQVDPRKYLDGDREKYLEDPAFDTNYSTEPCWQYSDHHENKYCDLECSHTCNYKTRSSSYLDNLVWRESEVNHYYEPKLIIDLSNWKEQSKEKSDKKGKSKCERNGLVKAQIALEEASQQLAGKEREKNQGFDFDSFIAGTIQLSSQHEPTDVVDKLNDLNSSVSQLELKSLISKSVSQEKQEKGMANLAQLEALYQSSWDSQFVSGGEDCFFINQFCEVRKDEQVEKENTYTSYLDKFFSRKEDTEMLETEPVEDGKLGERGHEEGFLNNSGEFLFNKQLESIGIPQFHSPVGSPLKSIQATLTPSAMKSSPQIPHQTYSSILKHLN

[37] = biological target: 5-hydroxytryptamine receptor 2A (Homo sapiens) (UniProt P28223); conditions: Compound concentration 10.0 uM
Sequence of 5-hydroxytryptamine receptor 2A (Homo sapiens) (P28223 whole entry): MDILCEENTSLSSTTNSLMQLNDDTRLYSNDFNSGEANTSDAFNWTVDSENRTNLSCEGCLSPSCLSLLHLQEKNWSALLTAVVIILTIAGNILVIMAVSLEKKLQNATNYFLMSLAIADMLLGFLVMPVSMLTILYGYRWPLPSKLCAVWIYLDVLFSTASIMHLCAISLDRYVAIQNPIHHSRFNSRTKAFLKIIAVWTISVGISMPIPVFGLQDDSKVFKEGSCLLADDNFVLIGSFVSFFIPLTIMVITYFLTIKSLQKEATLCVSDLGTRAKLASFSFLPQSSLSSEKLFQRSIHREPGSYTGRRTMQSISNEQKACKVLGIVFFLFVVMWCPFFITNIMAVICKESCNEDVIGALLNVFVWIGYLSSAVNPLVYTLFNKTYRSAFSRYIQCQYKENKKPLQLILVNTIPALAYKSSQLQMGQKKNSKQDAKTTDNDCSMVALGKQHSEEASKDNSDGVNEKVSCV

[38] = biological target: Ephrin type-A receptor 1 (Homo sapiens) (UniProt P21709); conditions: Compound concentration 1000.0 nM
Sequence of Ephrin type-A receptor 1 (Homo sapiens) (P21709 whole entry): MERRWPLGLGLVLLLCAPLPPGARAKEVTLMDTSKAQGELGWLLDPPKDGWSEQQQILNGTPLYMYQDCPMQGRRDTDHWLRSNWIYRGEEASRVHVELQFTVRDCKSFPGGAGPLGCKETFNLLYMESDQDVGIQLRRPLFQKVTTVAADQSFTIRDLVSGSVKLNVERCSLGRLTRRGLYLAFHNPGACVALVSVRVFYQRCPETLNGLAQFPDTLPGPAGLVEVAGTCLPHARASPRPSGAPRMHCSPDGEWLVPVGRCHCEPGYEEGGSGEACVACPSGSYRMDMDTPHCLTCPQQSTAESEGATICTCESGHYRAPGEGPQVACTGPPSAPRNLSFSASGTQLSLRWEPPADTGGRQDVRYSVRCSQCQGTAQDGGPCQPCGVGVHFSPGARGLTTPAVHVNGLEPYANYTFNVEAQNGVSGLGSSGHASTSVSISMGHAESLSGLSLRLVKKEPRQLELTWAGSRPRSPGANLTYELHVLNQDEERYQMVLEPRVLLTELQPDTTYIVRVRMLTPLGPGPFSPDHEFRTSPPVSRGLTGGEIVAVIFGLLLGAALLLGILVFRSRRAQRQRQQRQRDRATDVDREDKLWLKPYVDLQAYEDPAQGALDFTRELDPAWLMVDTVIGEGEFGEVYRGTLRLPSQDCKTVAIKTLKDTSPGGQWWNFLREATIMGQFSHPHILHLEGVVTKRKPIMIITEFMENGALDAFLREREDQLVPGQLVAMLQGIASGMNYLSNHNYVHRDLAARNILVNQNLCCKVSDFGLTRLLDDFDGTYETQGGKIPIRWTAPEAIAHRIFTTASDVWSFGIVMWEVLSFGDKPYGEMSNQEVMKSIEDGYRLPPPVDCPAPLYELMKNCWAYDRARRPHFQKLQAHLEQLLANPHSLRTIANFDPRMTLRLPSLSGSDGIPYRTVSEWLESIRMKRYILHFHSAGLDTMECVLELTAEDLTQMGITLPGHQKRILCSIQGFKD

CNC(=O)Nc1ccc2c(c1)[C@@]1(CC2)OC(=O)N(CC(=O)N(Cc2ccc(F)cc2)[C@@H](C)C(F)(F)F)C1=O [A-486]
residual activity [1]: 95% | residual activity [2]: 100% | residual activity [3]: 87% | residual activity [4]: 100% | inhibition [5]: -2.77% | residual activity [6]: 67% | residual activity [7]: 100% | residual activity [8]: 73% | residual activity [9]: 88% | residual activity [10]: 100% | residual activity [11]: 85% | residual activity [12]: 89% | inhibition [13]: 41% | residual activity [14]: 100% | residual activity [15]: 78% | residual activity [16]: 71% | residual activity [17]: 100% | residual activity [18]: 87% | residual activity [19]: 76% | residual activity [20]: 100% | inhibition [21]: 1% | residual activity [22]: 90% | residual activity [23]: 100% | residual activity [24]: 82% | residual activity [25]: 73% | residual activity [26]: 83% | inhibition [27]: 20.5% | residual activity [28]: 90% | residual activity [29]: 90% | residual activity [30]: 83% | residual activity [31]: 68% | residual activity [32]: 53% | residual activity [33]: 100% | residual activity [34]: 100% | residual activity [35]: 98% | residual activity [36]: 97% | inhibition [37]: 26.6% | residual activity [38]: 100%

CNC(=O)Nc1ccc2c(c1)CC[C@@]21OC(=O)N(CC(=O)N(Cc2ccc(F)cc2)[C@@H](C)C(F)(F)F)C1=O [A-485]
residual activity [1]: 78% | residual activity [2]: 75% | residual activity [3]: 80% | residual activity [4]: 99% | inhibition [5]: 2.39% | residual activity [6]: 66% | residual activity [7]: 91% | residual activity [8]: 55% | residual activity [9]: 96% | residual activity [10]: 98% | residual activity [11]: 89% | residual activity [12]: 76% | inhibition [13]: -4% | residual activity [14]: 89% | residual activity [15]: 77% | residual activity [16]: 74% | residual activity [17]: 100% | residual activity [18]: 91% | residual activity [19]: 96% | residual activity [20]: 100% | inhibition [21]: 10% | residual activity [22]: 100% | residual activity [23]: 82% | residual activity [24]: 70% | residual activity [25]: 78% | residual activity [26]: 91% | inhibition [27]: 21.1% | residual activity [28]: 99% | residual activity [29]: 88% | residual activity [30]: 100% | residual activity [31]: 86% | residual activity [32]: 49% | residual activity [33]: 89% | residual activity [34]: 80% | residual activity [35]: 97% | residual activity [36]: 100% | inhibition [37]: 34.6% | residual activity [38]: 88%
